Measured values from PMC9144902, “Metal(II) Complexes of the Fluoroquinolone Fleroxacin: Synthesis, Characterization and Biological Profile” (Pharmaceutics, 2022).

Tests used:
[1] = system: CT DNA; test: Study of the DNA-interaction by cyclic voltammetry; assay type: binding, calf; conditions: for Epa(f), anodic potential / Epc(f), cathodic potential / Epa(b), anodic potential / Epc(b), cathodic potential: M(II)/M(I), 1:2 DMSO/buffer; for Epa(f), anodic potential / Epc(f), cathodic potential: absence of CT DNA; for Epa(b), anodic potential / Epc(b), cathodic potential: presence of CT DNA; for Kr/Kox, ratio of equilibrium DNA-binding constants (reduced/oxidized form): eq. S6
Method: Cyclic voltammetry was used to study the interaction of the complexes with CT DNA. An intercalative interaction will induce a positive shift for the electrochemical potential(s) of metal oxidation/reduction, whereas, in the case of electrostatic interaction, a negative shift in the potential(s) may occur. The cyclic voltammograms of the complexes in a 1:2 DMSO:buffer solution (0.33 mM) were recorded in the absence and presence of the CT DNA solution (Figure S13). The predominant electrochemical feature for all complexes is a positive shift in the potential in the presence of CT DNA (ΔEpc/a = (–30)–(+127) mV). Consequently, the intercalative nature of the interaction of the complexes with DNA can be inferred from the presented data.
In order to evaluate further the redox behavior of the complexes, the corresponding equilibrium constants were calculated by determining the ratio Kr/Kox in accordance to Equation (S6), where Kox and Kr are the DNA-binding constants for the oxidized and reduced form, respectively, of the metal ions. For all complexes, the Kr/Kox ratio is close to or above 1 (Table 7), showing the selective binding of DNA to the […] form of the complexes. […]
S3.3 Study of the DNA –interaction by cyclic vol ta mmetry
Cyclic voltammetr y can be also used in order to calculate the corresponding equilibrium constant for the redox process. The ratio of the DNA–binding constants for the reduced (K r) and oxidized forms (Kox) of t he complex es (Kr/Kox) w as calculat ed according t o eq. S6:
Δ = = 0.059 × lo gEE E K oxoo o (eq. S6) […]
where Eo and Eo are the formal potentials of M(II)/M(I) redox couple in the fully bound and […]
free complexes, respectivel y. Kox and Kr are the binding constants for the binding of the oxidized and reduced species to DNA, respectivel y [S8] . […]

[2] = system: EB–DNA adduct (CT DNA); test: Competitive study with EB (EB–DNA fluorescence quenching); assay type: binding, calf; conditions: for Ksv, Stern–Volmer constant: EB–DNA adduct; for ΔI/Io, percentage of EB–DNA fluorescence quenching: [EB] = 20 μM, [DNA] = 26 μM, λexc 540 nm, λem 592 nm; for kq, EB–DNA quenching constant: τo = 23 ns; for EB–DNA relative fluorescence emission intensity, % of the initial (I/Io): λemission = 592 nm, final value (up to), Figure S14
Method: Ethidium bromide is a typical marker of intercalation because it can intercalate between adjacent DNA bases with its planar phenanthridine ring.
The fluorescence emission spectra of the EB–DNA adduct ([EB] = 20 μM, [DNA] = 26 μM) in the absence and presence of the compounds were recorded at increasing amounts of the respective compounds. […] As a conclusion, an intercalative interaction of the complexes with CT DNA can be proposed.
The values of the Stern–Volmer constants (Ksv) for the compounds were calculated using the linear Stern–Volmer equation (Equation (S2)) and were of the order of 10^5 M^−1 (Table 8), indicating tight binding of the complexes with DNA [61]. The Ksv values for the complexes are in the range found for a number of metal(II)–quinolone complexes, and complex 12 presents the highest Ksv value (Ksv = 7.25(±0.30) × 10^5 M^−1) among the compounds studied. In addition, the EB–DNA quenching constants (kq) for the compounds were calculated with Equation (S3), assuming τo = 23 ns as the fluorescence lifetime. The values of kq (Table 8) are much higher than the value of 10^10 M^−1s^−1, indicating a static mechanism of EB–DNA fluorescence quenching induced by the compounds, which can result from the formation of a new adduct apparently consisting of each complex and DNA [61].
In order to determine and confirm the DNA–binding mode of the compounds, a competitive study with EB as an intercalating marker is performed b y fluorescence emission spectroscopy.
Therefo re, the E B–displacing abilit y of the compounds from its EB –DN A conjugate was ex amined.
The DNA–EB adduct was prepared b y addition of 20 μM EB and 26 μM CT DNA in buffer solution (150 mM NaCl and 15 mM trisodium citrate at pH 7.0). The potential intercalation of the compounds between the DNA–bases was studied by the addition of a certain amount of the compound solution into the EB–DNA adduct solution. The influence of the compounds on the EB – DNA solution was monitored through the changes of the fluorescence emission spectra at excitation […]
wavelen gth (λex ) at 540 nm [S3]. […]
room temperature in solution or in the presence of DNA, under the same experimental conditions (λex = 540 nm). Bearing t hat in mind, the observed quenching of the EB–DNA solution is evidentl y associated to the displacement of EB from its EB–DNA adduct.
The quenching effici ency (KSV) for each compound was assessed according to the Stern – Volmer equation: Io =1+ k τ [Q] = 1+ K [Q], (eq. S2) [S3] where I0 and I = the fluorescence […]
emission intensities of EB–DNA in the absence and presence of the quencher, respectivel y, [Q] = the concentration of the quencher (i.e. compounds). KSV is obtained from t he Stern–Volmer plots b y the slope of the diagram I0/ I versus [Q]. Taking τ0 = 23 ns as the fluorescence lifetime of the EB– DNA s ystem [S5], the EB –DNA quenching constants (k q) of the compounds can be determined accordin g to eq.S3: K SV = kqτo . […]
[S2] Irgi, E.P.; Geromichalos, G.D.; Balala, S.; Kljun, J.; Kalogiannis, S.; Papadopoulos, A.; Turel, I.; Psomas, G. Cobalt(II) complexes with quinolone antimicrobial drug oxolinic acid: […]
[ S 5] Heller, D.P.; Greenstock, C.L. Fluorescence lifetime analysis of DNA intercalated ethidium bromide and quenching by free d ye. Biophys. Chem . 1994, 50, 305–312.

Structure (SMILES)	Epa(f), anodic potential [1]	Epc(f), cathodic potential [1]	Epa(b), anodic potential [1]	Epc(b), cathodic potential [1]	Kr/Kox, ratio of equilibrium DNA-binding constants (reduced/oxidized form) [1]	Ksv, Stern–Volmer constant [2]	ΔI/Io, percentage of EB–DNA fluorescence quenching [2]	kq, EB–DNA quenching constant [2]	EB–DNA relative fluorescence emission intensity, % of the initial (I/Io) [2]
CN1CCN(c2c(F)cc3c(=O)c(C(=O)[O-])cn(CCF)c3c2F)CC1.CN1CCN(c2c(F)cc3c(=O)c(C(=O)[O-])cn(CCF)c3c2F)CC1.[Ni+2].c1ccc(Nc2ccccn2)nc1 [complex 18, [Ni(flrx)2(bipyam)]]	−523 mV	−695 mV	−512 mV	−689 mV	1.15	3.02(±0.13) × 10^5 M^–1	59.3%	1.31(±0.05) × 10^13 M^−1s^−1	–
CN1CCN(c2c(F)cc3c(=O)c(C(=O)[O-])cn(CCF)c3c2F)CC1.CN1CCN(c2c(F)cc3c(=O)c(C(=O)[O-])cn(CCF)c3c2F)CC1.[Mn+2].c1ccc(-c2ccccn2)nc1 [complex 9, [Mn(flrx)2(bipy)]]	−475 mV	−701 mV	−495 mV	−684 mV	0.97	3.31(±0.07) × 10^5 M^–1	73.8%	1.44(±0.03) × 10^13 M^−1s^−1	26.2%
CN1CCN(c2c(F)cc3c(=O)c(C(=O)[O-])cn(CCF)c3c2F)CC1.[Cl-].[Cu+2].c1ccc(Nc2ccccn2)nc1 [complex 7, [Cu(flrx)(bipyam)Cl]]	−426 mV	−729 mV	−300 mV	−710 mV	3.41	3.44(±0.06) × 10^5 M^–1	62.7%	1.50(±0.03) × 10^13 M^−1s^−1	37.3%
CN1CCN(c2c(F)cc3c(=O)c(C(=O)[O-])cn(CCF)c3c2F)CC1.CN1CCN(c2c(F)cc3c(=O)c(C(=O)[O-])cn(CCF)c3c2F)CC1.O.O.[Mn+2] [complex 2, [Mn(flrx)2(H2O)2]]	−455 mV	−684 mV	−466 mV	−678 mV	0.96	6.07(±0.23) × 10^5 M^–1	74.4%	2.64(±0.10) × 10^13 M^−1s^−1	15.6%
CN1CCN(c2c(F)cc3c(=O)c(C(=O)[O-])cn(CCF)c3c2F)CC1.CN1CCN(c2c(F)cc3c(=O)c(C(=O)[O-])cn(CCF)c3c2F)CC1.[Co+2].c1ccc(Nc2ccccn2)nc1 [complex 16, [Co(flrx)2(bipyam)]]	−466 mV	−729 mV	−445 mV	−741 mV	1.08	3.77(±0.12) × 10^5 M^–1	70.7%	1.64(±0.05) × 10^13 M^−1s^−1	29.3%
